In patent US20040162467A1, “Non-invasive transudate extraction” (priority 2001, published 2004):

What was measured:
[1] = Other analytes: transdermal collection levels versus serum levels
[2] = Procalcitonin/TNF alpha and IL 6 (measure of bacterial sepsis): serum versus transdermal; assay type: in vivo
[3] = Concentrations in transdermal exudate collected by different formats from sheep, versus serum
Description: (§1) Sodium lauryl sulfate (40%) and either a commercial ultrasound conductive gel (Aquasonic, Parker Lab., NJ 07004, USA) or a 10% ethanol gel (the two gels were alternated in use) are employed. These gels are designated SLS-UG and SLS-EG respectively herein. Collected SLS-UG and SLS-EG are assayed as for blood. Saliva was divided into two samples. The first sample is stored at −20° C. and assayed as for blood. The second sample is assayed at the time of experimentation using the apparatus and immunosensors described above.
Ten of these animals were used to develop the transdermal exudate collection technique. These 10 animals were penned as above, and a catheter inserted into the jugular vein using known techniques in the art. A mixture of sodium lauryl sulfate and either SLS-UG or SLS-EG was positioned onto the shaved area on the back of each animal. […] At the end of the hour, the remaining mix on the back was collected. The entire procedure was repeated three times. This mix was subject to assay (see below) for hormones and glucose content.
On the following day, one of the two gel mixes were rubbed on and, after 10 min, ultrasound (20 kHz, 10 W/cm^2, pulsed 5 s on/5 s off using an ITO Physiotherapy and rehabilitation unit, Tokyo 176-8605, Japan) applied for 1 min directly onto the mix. Ten minutes later, the mix was again collected and measured. This was then repeated with 2 min of the ultrasound application, and on a following day, the entire procedure repeated using the alternative gel mix on the shaved patch on the animal. Times greater than 2 min were not attempted due to potential risk of skin damage. Blood samples were collected at the time of ultrasound application and again at the time when the gel mix was also collected. The entire ultrasound procedure was then repeated on subsequent days with the addition of an application of a 9V electric field either side of the ultrasound head (in contact with skin).
On a separate day, in a further repeat of the above procedure; the collecting head (50) was positioned onto the ultrasound device. The ultrasound device was modified to ensure good coupling for use with the collecting head and delivery of needed parameters to the skin. The output of the device was reset to achieve the same energy and pulse delivery to the skin's surface as when the collecting head was not present, and the ultrasound device had been placed directly in contact with the gels (as described above). Three fluid flow rates into the collection chamber of the head were compared: 150, 300 and 600 μl/min. The effluent fluid was then assayed. On a final day, this was then repeated with the immunosensors positioned in the exit line from the chamber, with immunosensor measurement of the hormones made as has been described above.

[4] = Serum, transdermal and saliva samples from human subjects before, during and after exercise; settings: for Exudate: transdermal; for Saliva: 30-min saliva lag
Description: as §1
(§2) Student t tests, ANOVA or Wilcoxon test for paired samples are made as appropriate. Statistical significance is taken at P≦0.05 level. For analysis across the exercise stress, data is grouped into pre, during and post exercise values as actual sample times relative to the exercise for transdermal and blood obtained values. For pre, during and post exercise grouping of saliva samples, a 20-min lag was allowed relative to blood and transdermal values in sheep and a 30-min lag in human subjects.
Ten human volunteers (males aged 19-23, body weights 85-103 kg) were seated at 09:30 h. During the experiment, they were held at a room temperature of 20-22° C. An initial 1 min burst of ultrasound, as for the sheep (above), was made on the volar surface of the forearm, following application of SLS-EG mix. Ten minutes later, transdermal (electrosonophoresis) collection began from this site on this forearm, simultaneous to a venepuncture blood collection being made from the other. A saliva collection was then made, followed by a second, third and fourth saliva collection 20, 30 and 40 min after the blood sample. These measurements were repeated three times over 3 h (i.e. a total of three blood and transdermal samples and 12 saliva samples). In between each sampling series, subjects were allowed to walk around, eat lightly and drink water. Following this collection, the five volunteers exercised at moderate intensities, for 40 min (heart rates maintained in the range of 130-160 bpm) on a rowing machine, stopping briefly at 10, 20 and 30 min to give blood, transdermal and saliva samples. The subjects gave another set of samples at 40 min upon completion of rowing, then warmed down lightly with stretching exercises for a further 10 min and gave a further saliva sample at the end of this time. Two more saliva samples were collected at 60 and 70 min after exercise started. At the end of this time, sampling was repeated as above, prior to exercise, for a further 3 h. The entire procedure was repeated twice a week for 3 weeks (a total of six times). The distance rowed (m) represented the total work rate during the exercise.

[5] = Serum, transdermal and saliva samples from sheep before, during and after exercise; settings: for Exudate: transdermal; for Saliva: 20-min saliva lag
Description: as §1, §2
In the remaining 10 sheep, experimentation took place on three separate days, each 3 days apart. On days of experimentation, animals were penned as above and the jugular vein of the animal was catheterised. Animals were left to rest for 50 min and then a single ultrasound application applied for 1 min as above. […] A series of electrosonophoresis collections were made concurrently with blood collection from the jugular vein, every 5 min for a further 1 h. Saliva samples were collected on every second blood sample (i.e. every 10 min). At completion of this time, a human shepherd, intermittently for 30 min, then ran the animals around a paddock. During this 30 min, each animal was briefly restrained manually and sampled on all three parameters every 10 min (i.e. three samples repeated three times). At the end of this period, animals were repenned and rested for 10 min, and a further saliva collection was made. Following this saliva collection for a further 1-h period, collection as above, prior to exercise, was repeated. In this manner for each animal, in each session, 27 blood and transdermal samples and 16 saliva samples were collected.

[6] = first group of subjects (no condition given)
[7] = second group of subjects (no condition given)
[8] = sheep, SLS + 10% E + US 1 min + 9 V
[9] = sheep, SLS + 10% E + US 1 min + 9 V + Collection Head
[10] = second group: females pregnant and lactating

Molecule: CC(=O)[C@H]1CC[C@H]2[C@@H]3CCC4=CC(=O)CC[C@]4(C)[C@H]3CC[C@]12C [Progesterone]
- Serum levels [1, 6]: 1e-06 to 1.2e-05 mg/mL
- Transdermal collection levels [1, 6]: 0.2 to 1.1 ng/mL
- Serum levels [1, 7]: 8e-06 to 2.5e-05 mg/mL
- Transdermal collection levels [1, 7]: 0.5 to 2.8 ng/mL

Molecule: TNF alpha
- TNF alpha Trandermal ([2]; subject number 20): 0.5 to 12 ng/mL
- Transdermal ([2]; subject number 20): 0.03 to 1.4 ng/mL
- TNF alpha Trandermal ([2]; subject number 30): 0.1 to 0.5 ng/mL
- Transdermal ([2]; subject number 30): 0.005 to 0.01 ng/mL

Molecule: Insulin: endogenous hormone analyte measured in serum and exudate
- Serum ([3]; sheep, SLS + 10% E): 0.18 ± 0.09 ng/mL
- Exudate ([3]; sheep, SLS + 10% E + US 1 min): 0.0004 ± 0.002 ng/mL
- Serum ([3]; sheep, SLS + 10% E + US 1 min): 0.4 ± 0.15 ng/mL
- Exudate [3, 8]: 0.0064 ± 0.0041 ng/mL
- Serum [3, 8]: 0.21 ± 0.08 ng/mL
- Exudate [3, 9]: 0.013 ± 0.006 ng/mL
- Serum [3, 9]: 0.19 ± 0.11 ng/mL
- Serum ([3]; sheep, SLS + UG): 0.2 ± 0.6 ng/mL
- Recovery as % of serum levels ([3]; sheep, gel mix with addition of ultrasound application): 2%
- Serum ([4]; 0 min Exercise): 13.1 ± 3.0 μIU/ml
- Exudate ([4]; 10 min Exercise): 0.90 ± 0.28 μIU/ml
- Serum ([4]; 20 min Exercise): 6.3 ± 3.8 μIU/ml
- Serum ([4]; 30 min Exercise): 5.4 ± 4.1 μIU/ml
- Exudate ([4]; 30 min Exercise): 0.46 ± 0.21 μIU/ml
- Exudate ([4]; 40 min Exercise): 0.57 ± 0.33 μIU/ml
- Serum ([4]; Postexercise): 14.1 ± 5.5 μIU/ml
- Exudate ([4]; Postexercise): 1.15 ± 0.48 μIU/ml
- Exudate ([4]; Preexercise): 1.35 ± 0.90 μIU/ml
- Serum ([5]; 10 min Exercise): 2.1e-07 ± 7e-08 mg/L
- Serum ([5]; 20 min Exercise): 1.2e-07 ± 5e-08 mg/L
- Exudate ([5]; 20 min Exercise): 9e-09 ± 3e-09 mg/L
- Exudate ([5]; 30 min Exercise): 8e-09 ± 4e-09 mg/L
- Serum ([5]; Postexercise): 1.9e-07 ± 8e-08 mg/L
- Exudate ([5]; Postexercise): 1.4e-08 ± 8e-09 mg/L
- Exudate ([5]; Preexercise): 2.9e-08 ± 9e-09 mg/L

Molecule: CCO [Ethanol, ethanol]
- Serum levels [1, 6]: 0.01 to 0.9 mg/mL
- Transdermal collection levels [1, 6]: 20000 to 80000 ng/mL
- Serum levels ([1]; second group (loading)): 0.4 to 1.4 mg/mL (loading)
- Transdermal collection levels ([1]; second group (loading)): 50000 to 110000 ng/mL

Molecule: Cn1c(=O)c2c(ncn2C)n(C)c1=O [Caffeine]
- Serum levels [1, 6]: 1 to 5 mg/mL
- Transdermal collection levels [1, 6]: 200000 to 800000 ng/mL
- Serum levels ([1]; second group (loading)): 4 to 14 mg/mL (loading)
- Transdermal collection levels ([1]; second group (loading)): 300000 to 1.5e+06 ng/mL

Molecule: C[C@]12CC[C@@H]3c4ccc(O)cc4CC[C@H]3[C@@H]1CC[C@@H]2O [Estradiol, 17-β estradiol]
- Recovery as % of serum levels ([3]; in vivo): 1%
- Saliva ([4]; 0 min Exercise): 0.76 ± 0.38 ng/L
- Exudate ([4]; 0 min Exercise): 1.53 ± 0.59 ng/L
- Saliva ([4]; 10 min Exercise): 0.75 ± 0.51 ng/L
- Exudate ([4]; 10 min Exercise): 1.47 ± 0.94 ng/L
- Saliva ([4]; 20 min Exercise): 0.83 ± 0.39 ng/L
- Exudate ([4]; 20 min Exercise): 1.74 ± 0.54 ng/L
- Saliva ([4]; 30 min Exercise): 0.85 ± 0.22 ng/L
- Exudate ([4]; 30 min Exercise): 2.14 ± 0.86 ng/L
- Saliva ([4]; 40 min Exercise): 0.68 ± 0.26 ng/L
- Exudate ([4]; 40 min Exercise): 1.53 ± 0.51 ng/L
- Saliva ([4]; Postexercise): 0.45 ± 0. ng/l
- Exudate ([4]; Postexercise): 1.11 ± 0.55 ng/L
- Saliva ([4]; Preexercise): 0.71 ± 0.25 ng/L
- Exudate ([4]; Preexercise): 1.23 ± 0.46 ng/L
- Serum ([5]; 10 min Exercise): 1.5 ± 1.1 mg/L
- Saliva ([5]; 10 min Exercise): 0.038 ± 0.011 mg/L
- Exudate ([5]; 10 min Exercise): 0.14 ± 0.08 mg/L
- Serum ([5]; 20 min Exercise): 1.3 ± 1.1 mg/L
- Saliva ([5]; 20 min Exercise): 0.046 ± 0.009 mg/L
- Exudate ([5]; 20 min Exercise): 0.12 ± 0.07 mg/L
- Serum ([5]; 30 min Exercise): 1.5 ± 1.3 mg/L
- Saliva ([5]; 30 min Exercise): 0.03 ± 0.012 mg/L
- Exudate ([5]; 30 min Exercise): 0.14 ± 0.09 mg/L
- Serum ([5]; Postexercise): 2.2 ± 1.1 mg/L
- Saliva ([5]; Postexercise): 0.052 ± 0.021 mg/L
- Exudate ([5]; Postexercise): 0.20 ± 0.06 mg/L
- Serum ([5]; Preexercise): 1.4 ± 1.2 mg/L
- Saliva ([5]; Preexercise): 0.05 ± 0.03 mg/L
- Exudate ([5]; Preexercise): 0.12 ± 0.06 mg/L

Molecule: IL 6: measure of bacterial sepsis
- Serum ([2]; subject number 20): 0.3 to 11.5 ng/mL
- Transdermal ([2]; subject number 20): 0.04 to 1.2 ng/mL
- Serum ([2]; subject number 30): 0.1 to 0.3 ng/mL
- Transdermal ([2]; subject number 30): 0.03 to 0.05 ng/mL

Molecule: CN[C@@H](C)[C@@H](O)c1ccccc1 [Pseudoephedrine, reference compound]
- Serum levels [1, 6]: 0.001 to 0.008 mg/mL
- Transdermal collection levels [1, 6]: 200 to 800 ng/mL
- Serum levels [1, 10]: 4-25 μg/ml females
- Transdermal collection levels [1, 10]: 400 to 2100 ng/mL

B1: Prolactin: endogenous hormone analyte (protein, UniProt P01236 29-227, looked up)
Prolactin: LPICPGGAARCQVTLRDLFDRAVVLSHYIHNLSSEMFSEFDKRYTHGRGFITKAINSCHTSSLATPEDKEQAQQMNQKDFLSLIVSILRSWNEPLYHLVTEVRGMQEAPEAILSKAVEIEEQTKRLLEGMELIVSQVHPETKENEIYPVWSGLPSLQMADEESRLSAYYNLLHCLRRDSHKIDNYLKLLKCRIIHNNNC
- Serum levels [1, 6]: 1e-06 to 8e-06 mg/mL
- Transdermal collection levels [1, 6]: 0.02 to 0.8 ng/mL
- Serum levels [1, 10]: 4-100 ng/ml females
- Transdermal collection levels [1, 10]: 0.4 to 10 ng/mL

B2: Procalcitonin: measure of bacterial sepsis (protein, UniProt P01258 26-141, looked up)
pro-form: APFRSALESSPADPATLSEDEARLLLAALVQDYVQMKASELEQEQEREGSSLDSPRSKRCGNLSTCMLGTYTQDFNKFHTFPQTAIGVGAPGKKRDMSSDLERDHRPHVSMPQNAN
modifications: pro-form
notes: measure of bacterial sepsis
- Serum ([2]; subject number 20): 0.5 to 15 ng/mL
- Transdermal ([2]; subject number 20): 0.04 to 1.7 ng/mL
- Serum ([2]; subject number 30): 0.1 to 0.5 ng/mL
- Transdermal ([2]; subject number 30): 0.02 to 0.05 ng/mL
